Measurements: publication PMC11595864, “Design, Synthesis, and Evaluation of Novel Thiazole-Containing Algicides Inspired by Bacillamide A” (Marine Drugs, 2024)
In brackets after ≈: the same amount, converted by molar mass. Read-outs that look alike come from different tables or passages of the source.

Key:
[1] = tested on: S. costatum; assay: Algicidal activity assay, EC50; format: cell-based, Skeletonema costatum; details: for EC50: Skeletonema costatum, read-out: EC50 S. costatum
Protocol: (§1) P. minimum, A. pacificum, and S. costatum were purchased from Guangyu Biological Technology Co., Ltd. (Shanghai, China). The algae strain was cultured in F/2 medium ((12 h light: 12 h dark cycle), 20 ± 1 °C, 70 μmol m^−2 s^−1). Purchased algae were transferred to sterile conical flasks for culture; after the algae proliferation was stabilized, the expanded culture was next carried out following standard conditions.
(§2) Copper sulfate and Diuron were used as the positive controls. EC50 values were calculated according to the equation of the quantity–effect relationship in Equation (2) using the Hill model of Graph Pad Prism software (8.0.2). (2) Y=Bottom+(Top-Bottom)/1+10^(Log EC50-X)×Hill Slope
(§3) The X and Y values represent the concentration (mg/L) and response values of the control and experimental groups, respectively. The Top, Bottom, and Hill Slope represent the maximum response, minimum response, and the curve slope, respectively. The EC50 represents half of the maximum effective concentration.

[2] = tested on: A. pacificum; assay: Algicidal activity assay, EC50; format: cell-based, Alexandrium pacificum; details: Mean ± SD, n = 3; for EC50: Alexandrium pacificum
Protocol: as §1, §2, §3

[3] = tested on: P. minimum; assay: Algicidal activity assay, EC50; format: cell-based, Prorocentrum minimum; details: for EC50: Prorocentrum minimum, read-out: EC50 P. minimum
Protocol: as §1, §2, §3

[4] = tested on: P. minimum; assay: Growth-inhibition rate measurement at 50 mg/L, 24 h; format: cell-based, Prorocentrum minimum; details: for inhibition at 50 µg/mL: Prorocentrum minimum, read-out: inhibition rate against P. minimum
Protocol: as §1
(§4) The stock solutions of bacillamide A and different BDs were prepared in dimethyl sulfoxide (DMSO) with the requisition amount. […] The controls received the same volume of DMSO. The inhibitory activities of bacillamide A, different BDs, and positive controls were screened by 96 well microtiter plates at different concentrations. Inhibition ratios (IRs) of cupric sulfate (50 mg/L, positive control), bacillamide A (50 mg/L), and BDs (50 mg/L) were calculated on algae using Equation (1). (1) IR=Cc0-Cex/Cc0×100%
(§5) The CC0 and Cex, respectively, represent the algal densities of the control and experimental groups.

[5] = tested on: A. pacificum; assay: as above; format: cell-based, Alexandrium pacificum; details: for inhibition at 50 µg/mL: Alexandrium pacificum, read-out: inhibition rate against A. pacificum
Protocol: as §1, §4, §5

[6] = tested on: zebrafish; assay: Zebrafish acute toxicity assay; format: in vivo; details: zebrafish
Protocol: Zebrafish acute toxicity of bacillamide A and synthesized BDs were evaluated at 0.1 mg/L, 1 mg/L, and 10 mg/L, respectively. Diuron and CuSO4 were used as positive controls. The commercial zebrafish (body length > 3.0 cm) were domesticated in aerated tap water for 24 h, fed once daily for seven consecutive days, and stopped being fed before the experiment.
4. Acute toxicity table S1.
Compound Concentration Survival percent Acute
aAccording to the Guide for Environmental Safety Assessment of Chemical Pesticides
4 groups and treated with different compounds for 96 h.

[7] = tested on: P. minimum; assay: ROS level (DCFH-DA fluorescent probe assay); format: cell-based, Prorocentrum minimum; details: 10 mg/L, 72 h
Protocol: (§6) P. minimum, S. costatum, and A. pacificum cells were cultured in F/2 medium. All flasks were cultivated under 12 h of light: 12 h of dark and 70 μmol m^−2 s^−1 at 20 ± 1 °C. […] Finally, the algal cells were collected and diluted in 6 mL of phosphate buffer (pH = 7.8). A small amount of quartz sand was added into the algal cells under ice bath. The obtained homogenate was next poured into a centrifuge tube and centrifuged at 5000 r/min for 25 min at 4 °C. The obtained supernatant was placed in the refrigerator at 4 °C for the next step experiment.
(§7) The reactive oxygen species (ROS) assay kit was purchased from SolarBio Co., Ltd., Beijing, China. The 2′,7′-dichlorodihydrofluorescein diacetate (DCFH-DA) could be oxidized by reactive oxygen or nitrogen species (ROS/RNS) to generate high fluorescent 2′,7′-dichlorofluoroscein (DCF). DCF could be detected by Cyto-FLEX flow cytometry.

[8] = tested on: S. costatum; assay: ROS level (DCFH-DA fluorescent probe assay); format: cell-based, Skeletonema costatum; details: 10 mg/L, 72 h
Protocol: as §6, §7

O=C(NCCc1ccccc1)c1csc(-c2ccccc2)n1 [Compound 7c] gave an EC50 ([1]; Mean ± SD, n = 3) of 0.24 ± 0.058 µg/mL (≈ 0.778 µM), an EC50 [2] of 0.53 ± 0.32 µg/mL (≈ 1.72 µM) and an EC50 ([3]; Mean ± SD, n = 3) of 3.38 ± 0.84 µg/mL (≈ 11 µM). The inhibition at 50 µg/mL [4] was 74.7% and the inhibition at 50 µg/mL [5] was 70 to 95%.

For CN(C)CCNC(=O)c1csc(-c2ccccc2)n1 [Compound 7d], the EC50 ([1]; Mean ± SD, n = 3) was 0.77 ± 0.21 µg/mL (≈ 2.8 µM), the EC50 [2] was 2.02 ± 0.54 µg/mL (≈ 7.34 µM) and the EC50 ([3]; Mean ± SD, n = 3) was 3.22 ± 0.39 µg/mL (≈ 11.7 µM). It also gave an inhibition at 50 µg/mL [5] of 70 to 95%.

For O=C(Nc1ccccc1)c1csc(-c2ccccc2)n1 [Compound 7e], the EC50 ([1]; Mean ± SD, n = 3) was 1.1 ± 0.31 µg/mL (≈ 3.92 µM), the EC50 [2] was 0.69 ± 0.07 µg/mL (≈ 2.46 µM) and the EC50 ([3]; Mean ± SD, n = 3) was 3.23 ± 0.39 µg/mL (≈ 11.5 µM). It also gave an inhibition at 50 µg/mL [5] of 70 to 95%.

With CC(C)(C)OC(=O)NCCNC(=O)c1csc(-c2ccccc2)n1 [Compound 7f] the “inhibition rate against P. minimum” value [4] was “lost most of its algicidal activity”, the “inhibition rate against A. pacificum” value [5] was “lost most of its algicidal activity” and the melting point was 162 to 163 °C.

In the case of NCCNC(=O)c1csc(-c2ccccc2)n1 [Compound 7g], the EC50 ([1]; Mean ± SD, n = 3) is reported as 2.28 ± 0.37 µg/mL (≈ 9.22 µM), the EC50 [2] is reported as 3.42 ± 0.13 µg/mL (≈ 13.8 µM) and the EC50 ([3]; Mean ± SD, n = 3) is reported as 2.02 ± 0.27 µg/mL (≈ 8.17 µM). The inhibition at 50 µg/mL [4] was 76.9% and the melting point was 173 to 174 °C.

For O=S(=O)([O-])[O-].[Cu+2] [CuSO4, cupric sulfate anhydrous, reference compound], the “EC50 S. costatum” value ([1]; Mean ± SD, n = 3) was 3.12 ± 0.21 µg/mL, the “EC50 A. pacificum” value [2] was 2.34 ± 0.06 µg/mL and the “EC50 P. minimum” value ([3]; Mean ± SD, n = 3) was 3.61 ± 0.32 µg/mL. It also gave a Survival percent ([6]; 0.1 mg/L, 0h) of 100, a Survival percent ([6]; 0.1 mg/L, 24h) of 100 and a Survival percent ([6]; 0.1 mg/L, 48h) of 80. It also gave a Survival percent ([6]; 0.1 mg/L, 72h) of 73, a Survival percent ([6]; 0.1 mg/L, 96h) of 73 and a Survival percent ([6]; 1 mg/L, 0h) of 100. The Survival percent ([6]; 1 mg/L, 24h) was 50, the Survival percent ([6]; 1 mg/L, 48h) was 50 and the Survival percent ([6]; 1 mg/L, 72h) was 43. It also gave a Survival percent ([6]; 1 mg/L, 96h) of 43, a Survival percent ([6]; 10 mg/L, 0h) of 100 and a Survival percent ([6]; 10 mg/L, 24h) of 0. For the same compound, the Survival percent ([6]; 10 mg/L, 48h) was 0, the Survival percent ([6]; 10 mg/L, 72h) was 0 and the Survival percent ([6]; 10 mg/L, 96h) was 0. For the same compound, the “increase of ROS levels in P. minimum” value [7] was 9.6 fold and the “increase of ROS levels in S. costatum” value [8] was 7.7 fold.

With CN(C)C(=O)Nc1ccc(Cl)c(Cl)c1 [Diuron, reference compound] the EC50 [1] was 4.32 ± 0.14 µg/mL (≈ 18.5 µM), the EC50 [2] was 5.69 ± 0.46 µg/mL (≈ 24.4 µM) and the EC50 [3] was 4.72 ± 0.41 µg/mL (≈ 20.2 µM).
